{"source": "ChEMBL document CHEMBL1201862", "about": "“PubChem BioAssay data set” (2004)", "key": {"[1]": {"assay": "HEp-2 cell cytotoxicity, dose response, cytotoxicity control for RSV inhibitor project, HTS (AID 2410)", "type": "functional", "settings": "human respiratory syncytial virus"}, "[2]": {"biological_target": "72 kDa type IV collagenase (Homo sapiens, UniProt P08253)", "sequence (P08253 whole entry)": "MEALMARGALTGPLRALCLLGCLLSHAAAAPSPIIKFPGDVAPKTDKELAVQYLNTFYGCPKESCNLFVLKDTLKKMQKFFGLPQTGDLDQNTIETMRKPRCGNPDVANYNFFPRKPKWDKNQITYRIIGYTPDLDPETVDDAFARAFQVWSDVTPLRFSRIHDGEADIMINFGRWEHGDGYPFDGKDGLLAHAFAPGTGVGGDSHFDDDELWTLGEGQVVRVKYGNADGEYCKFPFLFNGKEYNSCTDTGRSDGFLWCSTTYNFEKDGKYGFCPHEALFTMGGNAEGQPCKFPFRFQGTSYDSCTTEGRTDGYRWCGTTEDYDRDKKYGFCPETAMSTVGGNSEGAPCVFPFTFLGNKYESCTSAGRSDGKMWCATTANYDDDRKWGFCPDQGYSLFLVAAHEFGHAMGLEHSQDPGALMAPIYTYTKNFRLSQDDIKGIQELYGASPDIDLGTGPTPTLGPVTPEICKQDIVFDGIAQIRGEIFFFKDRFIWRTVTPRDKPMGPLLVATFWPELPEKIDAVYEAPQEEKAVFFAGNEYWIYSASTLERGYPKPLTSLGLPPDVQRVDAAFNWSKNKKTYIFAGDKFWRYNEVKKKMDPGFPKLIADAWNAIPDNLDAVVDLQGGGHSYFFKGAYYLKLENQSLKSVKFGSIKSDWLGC", "assay": "Dose Response validation of uHTS RPN11 inhibitor hits using a MMP-2 Fluorescence assay.", "type": "functional"}, "Prothrombin": {"biological_target": "Prothrombin (Bos taurus, UniProt P00735)", "assay": "thrombin inhibition, dose response, biochemical, fluorescence polarization, uHTS hits (AID 602369)", "type": "functional"}, "[3]": {"biological_target": "26S proteasome non-ATPase regulatory subunit 14 (Homo sapiens, UniProt O00487)", "sequence (O00487 whole entry)": "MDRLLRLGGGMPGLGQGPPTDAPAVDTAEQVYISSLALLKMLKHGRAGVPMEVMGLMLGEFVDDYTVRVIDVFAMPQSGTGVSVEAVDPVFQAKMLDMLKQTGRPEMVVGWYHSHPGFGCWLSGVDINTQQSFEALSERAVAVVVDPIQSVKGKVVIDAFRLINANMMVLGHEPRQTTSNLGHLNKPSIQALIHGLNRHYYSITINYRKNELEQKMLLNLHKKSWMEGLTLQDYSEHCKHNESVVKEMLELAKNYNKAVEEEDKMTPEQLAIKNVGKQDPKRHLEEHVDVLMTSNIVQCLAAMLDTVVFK", "assay": "inhibition of proteasome subunit RPN11 – biochemical, fluorescence polarization, uHTS hits, confirmation (AID 602368)", "type": "functional"}, "HEK293": {"tested_on": "HEK293", "assay": "inhibitors of LMP1-driven NF-kB reporter, dose response, cell-based, HEK293, luciferase, cherry-pick (AID 588343)", "type": "functional", "settings": "Homo sapiens"}, "Vero [4]": {"tested_on": "Vero", "assay": "cells", "type": "functional, cell-based, Chlorocebus sabaeus", "settings": "Chlorocebus sabaeus, Vero"}, "Vero [5]": {"tested_on": "Vero", "assay": "cells", "type": "functional, Chlorocebus sabaeus", "settings": "Chlorocebus sabaeus, Vero"}, "[6]": {"biological_target": "Heat shock protein HSP 90-alpha (Homo sapiens, UniProt P07900)", "type": "functional, organism-based"}, "Nonstructural protein 1": {"biological_target": "Nonstructural protein 1 (Influenza A virus, UniProt Q194T2)", "sequence (Q194T2 whole entry)": "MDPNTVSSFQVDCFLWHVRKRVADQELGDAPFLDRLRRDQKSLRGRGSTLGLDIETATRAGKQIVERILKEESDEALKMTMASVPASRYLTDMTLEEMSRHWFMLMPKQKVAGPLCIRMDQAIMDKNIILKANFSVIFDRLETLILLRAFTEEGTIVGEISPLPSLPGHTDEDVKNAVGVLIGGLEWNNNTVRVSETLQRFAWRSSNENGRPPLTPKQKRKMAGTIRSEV", "type": "functional, Influenza A virus (A/California/07/2009(H1N1))"}, "H9c2": {"tested_on": "H9c2", "assay": "cells", "type": "functional, cell-based", "settings": "Rattus norvegicus, H9c2, Myocardium"}, "[7]": {"biological_target": "Glucose-6-phosphate 1-dehydrogenase (Homo sapiens, UniProt P11413)", "sequence (P11413 whole entry)": "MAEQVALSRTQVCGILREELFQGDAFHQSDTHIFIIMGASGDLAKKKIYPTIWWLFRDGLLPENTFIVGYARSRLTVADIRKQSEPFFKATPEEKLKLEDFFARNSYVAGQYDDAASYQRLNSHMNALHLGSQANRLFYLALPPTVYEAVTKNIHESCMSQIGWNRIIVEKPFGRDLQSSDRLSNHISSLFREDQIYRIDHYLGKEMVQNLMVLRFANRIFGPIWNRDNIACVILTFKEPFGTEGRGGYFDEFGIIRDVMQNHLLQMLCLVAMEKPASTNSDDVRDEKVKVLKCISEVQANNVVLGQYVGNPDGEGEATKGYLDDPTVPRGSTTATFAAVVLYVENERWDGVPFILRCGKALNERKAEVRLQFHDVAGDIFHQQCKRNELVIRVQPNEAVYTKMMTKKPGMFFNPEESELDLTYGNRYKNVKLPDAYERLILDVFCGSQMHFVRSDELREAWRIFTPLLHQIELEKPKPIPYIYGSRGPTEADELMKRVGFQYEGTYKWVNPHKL", "assay": "human G6PD enzyme inhibitors, dose response, selectivity assay for P. falciparum G6PD inhibitor project, biochemical, fluorescence (AID 504792)", "type": "functional"}, "Paired box protein Pax-8": {"biological_target": "Paired box protein Pax-8 (Homo sapiens, UniProt Q06710)", "sequence (Q06710 whole entry)": "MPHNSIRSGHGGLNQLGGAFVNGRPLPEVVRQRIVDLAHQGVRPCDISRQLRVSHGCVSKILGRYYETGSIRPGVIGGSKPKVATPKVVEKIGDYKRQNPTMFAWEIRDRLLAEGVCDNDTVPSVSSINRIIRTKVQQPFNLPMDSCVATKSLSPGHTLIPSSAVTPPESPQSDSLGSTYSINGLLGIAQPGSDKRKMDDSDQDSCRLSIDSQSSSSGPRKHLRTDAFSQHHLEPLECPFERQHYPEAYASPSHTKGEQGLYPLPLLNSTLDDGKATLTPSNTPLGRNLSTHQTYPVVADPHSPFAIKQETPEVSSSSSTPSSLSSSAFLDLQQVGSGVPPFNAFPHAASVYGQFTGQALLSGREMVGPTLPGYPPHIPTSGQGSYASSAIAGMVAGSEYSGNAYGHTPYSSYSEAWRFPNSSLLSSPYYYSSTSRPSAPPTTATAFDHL", "assay": "inhibitors of PAX8-driven TPO luciferase reporter, dose response, RMG-I cells, cherry-pick (AID 687027);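 note: luciferase reporter driven by Pax8 target thyroperoxidase promoter measured by SteadyGlo luminescence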", "type": "functional, cell-based"}, "[8]": {"assay": "NIH:OVCAR-3 ovarian cancer cell cytotoxicity, dose response, PAX8 inhibitor project, plate reader, dry powder samples (AID 743044)", "type": "functional, cell-based"}, "[9]": {"assay": "IGROV1 ovarian cancer cell cytotoxicity, dose response, PAX8 inhibitor project, plate reader, dry powder samples (AID 743043)", "type": "functional, cell-based", "settings": "IGROV-1"}, "[10]": {"biological_target": "T1, Corticotropin-releasing factor receptor 2/Corticotropin-releasing factor-binding protein (Homo sapiens, UniProt P24387+Q13324)", "T1 sequence (Q13324 whole entry)": "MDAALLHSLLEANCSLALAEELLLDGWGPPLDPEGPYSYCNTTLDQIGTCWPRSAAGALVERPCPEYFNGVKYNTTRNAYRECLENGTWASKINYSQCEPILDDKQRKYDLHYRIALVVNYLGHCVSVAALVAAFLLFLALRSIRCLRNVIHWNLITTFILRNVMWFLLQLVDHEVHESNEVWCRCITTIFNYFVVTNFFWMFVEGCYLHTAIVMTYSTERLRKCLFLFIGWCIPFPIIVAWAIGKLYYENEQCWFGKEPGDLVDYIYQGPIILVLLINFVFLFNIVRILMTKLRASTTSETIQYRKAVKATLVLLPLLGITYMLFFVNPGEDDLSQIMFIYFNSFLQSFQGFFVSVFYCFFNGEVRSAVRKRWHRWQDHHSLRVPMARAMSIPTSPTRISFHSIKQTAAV", "T1 sequence (P24387 whole entry)": "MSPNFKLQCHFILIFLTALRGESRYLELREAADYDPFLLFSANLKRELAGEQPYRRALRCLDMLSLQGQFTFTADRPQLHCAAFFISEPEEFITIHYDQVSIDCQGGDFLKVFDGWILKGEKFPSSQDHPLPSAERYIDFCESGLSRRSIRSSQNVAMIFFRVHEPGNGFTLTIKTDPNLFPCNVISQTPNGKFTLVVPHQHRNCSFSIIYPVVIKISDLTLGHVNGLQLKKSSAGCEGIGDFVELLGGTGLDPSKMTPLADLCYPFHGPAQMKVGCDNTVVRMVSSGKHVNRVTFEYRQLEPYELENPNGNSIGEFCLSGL", "assay": "Dose Response confirmation of uHTS hits for small molecule antagonists of the CRF-binding protein and CRF-R2 receptor complex.", "type": "functional", "settings": "read-out: IC50_Mean"}, "[11]": {"biological_target": "T1, Corticotropin-releasing factor receptor 2/Corticotropin-releasing factor-binding protein", "assay": "activators of CRF receptor 2 with binding protein – uHTS hits, confirmation (AID 602473)", "type": "functional", "settings": "read-out: EC50_Mean"}}, "note": "Active and inactive are the calls of the source."}
{"smiles": "N#C/C(=C\\C1=C(N2CCOCC2)C(=C\\c2ccc(Cl)cc2)/CC1)C(=O)Nc1ccccc1F", "values": [{"measurement": "CC50", "setting": "[1]", "value": "18.3 µM (active)"}, {"measurement": "IC50", "setting": "[2]", "value": "> 100 µM (inactive)"}, {"measurement": "IC50", "setting": "Prothrombin", "value": "17 µM (active)"}, {"measurement": "IC50", "setting": "[3]", "value": "6.46 µM (active)"}]}
{"smiles": "COc1ccc(C=C2OC(O)=C(C(C)=O)C2=O)cc1", "values": [{"measurement": "AC50", "setting": "HEK293", "value": "6.16 µM (active)"}]}
{"smiles": "CC(=NNc1nc2ccccc2o1)c1ncccn1", "values": [{"measurement": "IC50", "setting": "Vero [4]", "value": "> 25 µM (active)"}, {"measurement": "CC50", "setting": "Vero [5]", "value": "1.34 µM (active)"}, {"measurement": "AC50", "setting": "[6]", "value": "1.97 µM (active)"}, {"measurement": "AC50", "setting": "HEK293", "value": "1.23 µM (active)"}, {"measurement": "IC50", "setting": "Nonstructural protein 1", "value": "0.739 µM (active)"}]}
{"smiles": "O=C(COC(=O)Cn1[nH]c(=O)c2ccccc2c1=O)NNC(=O)c1ccc(Br)cc1", "values": [{"measurement": "IC50", "setting": "H9c2", "value": "17.2 µM (active)"}]}
{"smiles": "CCN1CCN(c2nc(O)c3c(n2)CCC3)CC1", "values": [{"measurement": "IC50", "setting": "H9c2", "value": "> 79 µM (inactive)"}]}
{"smiles": "COc1cccc(CNc2ccc3[nH]c(O)nc3c2)c1OCc1ccc(F)cc1", "values": [{"measurement": "IC50", "setting": "[7]", "value": "> 80 µM (inactive)"}]}
{"smiles": "C[C@H]1CCCCO[C@H](CN(C)C(=O)Nc2ccc(C(F)(F)F)cc2)[C@@H](C)CN([C@@H](C)CO)C(=O)c2cc(NC(=O)CCC(F)(F)F)ccc2O1", "values": [{"measurement": "AC50", "setting": "Paired box protein Pax-8", "value": "6.57 µM (active)"}, {"measurement": "AC50", "setting": "[8]", "value": "39.9 µM (active)"}, {"measurement": "AC50", "setting": "[9]", "value": "54.7 µM (active)"}]}
{"smiles": "Cc1cccc(N2CCN(C(=O)CCc3nc(O)c4ccccc4n3)CC2)c1C", "values": [{"measurement": "IC50", "setting": "H9c2", "value": "> 79 µM (inactive)"}, {"measurement": "IC50", "setting": "[10]", "value": "> 47.1 µM (inactive)"}, {"measurement": "EC50", "setting": "[11]", "value": "> 53 µM (inactive)"}]}
{"smiles": "O=C(Nc1ccccc1)c1nc[nH]c1C(=O)NCCCCCCNC(=O)c1[nH]cnc1C(=O)Nc1ccccc1", "values": [{"measurement": "IC50", "setting": "H9c2", "value": "> 79 µM (inactive)"}]}
{"smiles": "COc1ccccc1NC(=O)CSc1nc(N)c(C#N)cc1C#N", "values": [{"measurement": "IC50", "setting": "[2]", "value": "> 100 µM (inactive)"}, {"measurement": "IC50", "setting": "Prothrombin", "value": "55.8 µM (active)"}, {"measurement": "IC50", "setting": "[3]", "value": "36.2 µM (active)"}]}
